Converted amounts (≈) assume the structure as drawn. Read-outs that look alike come from different tables or passages of the source. Where no end group is shown, it is not given here. A value given as a limit tells only on which side of the number the result lay.

One data set relates to E. faecalis (ATCC 51575). The experiment in a line: microbe, parasite or virus in culture. The conditions noted are these: Enterococcus faecalis, ATCC51575, 24 h, read-out: MIC, E. faecalis (ATCC 51575). On the procedure:
(§1) Description of the characteristics and growth conditions of various bacterial strains used in the study are provided in the Supporting Information (Table S3). Antibacterial susceptibility testing was carried out using a standard microtiter dilution method recommended by the clinical and laboratory standard institute (CLSI) and measured as a minimum inhibitory concentration (MIC), the lowest peptide concentration that inhibited bacterial growth. Briefly, the overnight grown cultures in the recommended broth for each bacterial strain were diluted in cation-adjusted Mueller Hinton Broth (CAMHB) to give an inoculum of 10^6 colony-forming units (CFU)/mL. A 2-fold serially diluted test peptide solution (100 μL) was added to the microtiter plates. After adding bacterial suspension (100 μL), the plates were incubated at 37 °C for 24 h, and the MICs were determined. The same protocol was used to determine the MICs in the presence of salts and serum except using the media supplemented with various cationic salts (150 mM NaCl, 4.5 mM KCl, 6 mM NH4Cl, 1 mM MgCl2, and 2 mM CaCl2) or 25% FBS. The data was acquired from three independent assays performed in triplicate.
(§2) The bacterial strains employed in this study were obtained from the American Type Culture Collection (ATCC). Each strain was propagated as recommended by the ATCC, and each strain was stored as a frozen glycerol stock at -80°C. A bacterial colony was grown on the appropriate agar as indicated in Table S1 and was used to inoculate the appropriate broth. The culture was incubated at the appropriate conditions, as mentioned in Table S1. Following the incubation, the culture was diluted to an optical density 625 nm (OD625) of 0.1 in cation adjusted Mueller Hinton Broth (CAMHB), which is equivalent to 1 × 10^8 CFU/mL. The culture was further diluted to 1 × 10^6 CFU/mL, which was used to conduct the MIC determination assay. For the S. pneumoniae strains, CAMHB + 2.5% lysed horse blood was required for the assay. The strains with their […]
(§3) Table S3. Description of the characteristics and growth conditions of various bacterial strains

A further data set has as its system E. faecium (ATCC 700221). The experiment in a line: microbe, parasite or virus in culture. The conditions noted are these: Enterococcus faecium, ATCC700221, 24 h, read-out: MIC, E. faecium (ATCC 700221). On the procedure: as §1, §2, §3
A further data set concerns E. faecium (ATCC 27270). The experiment in a line: microbe, parasite or virus in culture. The conditions noted are these: Enterococcus faecium, ATCC27270, 24 h, read-out: MIC, E. faecium (ATCC 27270). On the procedure: as §1, §2, §3
The subject of another data set is S. aureus (ATCC 29213). In words: MIC, standard microtiter dilution (CLSI). The data set is classed as cell-based. To be noted: for MIC, S. aureus (ATCC 29213): broth microdilution (CLSI), CAMHB, 37 °C, 24 h. In outline:
(§4)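 Broth microdilution per CLSI: overnight cultures diluted in cation-adjusted Mueller Hinton Broth to 10^6 CFU/mL, mixed with 2-fold serial peptide dilutions, incubated 37 °C for 24 h. MIC = lowest peptide concentration inhibiting growth. Three independent assays in triplicate.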

The next data set deals with E. coli (ATCC 25922). The conditions noted are these: broth microdilution (CLSI), CAMHB, 37 °C, 24 h. In outline:
as §4
A general note: Dilution methods test growth across graded concentrations, often in twofold steps.

The test system of a further data set is MRSA (ATCC BAA-1556). The conditions noted are these: broth microdilution (CLSI), CAMHB, 37 °C, 24 h. The method in brief:
as §4

For data set [1], the system named is K. pneumoniae (ATCCBAA-1705). In words: MIC, standard microtiter dilution (CLSI). The class given is cell-based, Klebsiella pneumoniae. To be noted: broth microdilution (CLSI), CAMHB, 37 °C, 24 h. In outline:
as §4

Data set [2] concerns human red blood cells (hRBCs). The experiment in a line: Hemolytic assay. The data set is classed as cell-based. To be noted: 2 h, 37 °C. The method in brief: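 Percent hemolysis uses PBS as 0% and 1% Triton X-100 as 100% references, from supernatant absorbance at 567 nm. Red cells (4% in PBS, equal volume) exposed 2 h at 37 °C without agitation to 2-fold serially diluted peptide.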

Data set [3] relates to P. aeruginosa (ATCC 27883). The experiment in a line: MIC, standard microtiter dilution (CLSI). The data set is classed as cell-based, Pseudomonas aeruginosa. The conditions noted are these: broth microdilution (CLSI), CAMHB, 37 °C, 24 h. In outline: as §4
A short description of data set [4]: Relative hydrophobicity as RP-HPLC retention time. The class given is physicochemical. The conditions noted are these: chromatographic, Phenomenex Luna C18 4 μm 150 × 4.6 mm, linear AB gradient 1% acetonitrile/min, 0.3 mL/min, A water 0.1% TFA, B acetonitrile 0.1% TFA, 25 °C. On the procedure:
The purity analysis of the peptides was conducted on a RP-HPLC system (Shimadzu; LC-20ADXR) by using a Phenomenex (Luna) analytical C18 column (4 μm, 150 × 4.6 mm). The mass of the purified peptides was determined in the positive-ion mode using Q-TOF LC/MS (Compass Hystar 4.1, Bruker, USA). The purity (>95%) and mass data of all the synthesized peptides are provided in the Supporting Information.
8. Comparative Hydrophobicity analysis
The purity of all synthesized peptides was determined using reverse phase analytical HPLC
(Shimadzu; LC-20ADXR). Below mentioned are the conditions used to conduct the purity
Column: Phenomenex (Luna), 4 um, C18, 150 × 4.6 mm
Mobile Phase: Buffer A-Water containing 0.1% TFA,
Buffer B-Acetonitrile containing 0.1% TFA
Figure S52. HPLC chromatogram of 6a.
(1 picture or pasted object on this page, not shown here)

Data set [5] in a line: CD spectroscopy, helicity.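 As to % of helicity induced by Liposomes: share of the total helicity with liposomes gained over the same peptide in PBS.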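 As to % of helicity induced by TFE: share of the total helicity in TFE gained over the same peptide in PBS.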 The data set is classed as physicochemical. Set-up: key to Δ[θ]222 induced by TFE / Δ[θ]222 induced by Liposomes: mean residue molar ellipticity, mdeg cm2/(dmol × res). To be noted: for [θ]222 mean residue molar ellipticity, TFE / [θ]222 mean residue molar ellipticity, Liposomes / [θ]222 mean residue molar ellipticity, PBS: CD at 222 nm, 25 °C; for [θ]222 mean residue molar ellipticity, TFE: aqueous buffer containing 50% TFE; for [θ]222 mean residue molar ellipticity, Liposomes / Δ[θ]222 induced by Liposomes: bacterial membrane mimicking liposomes; for [θ]222 mean residue molar ellipticity, Liposomes: peptide:lipid molar ratio 1:1.05; for [θ]222 mean residue molar ellipticity, PBS: phosphate buffer saline pH 7.0; for Δ[θ]222 induced by TFE / Δ[θ]222 induced by Liposomes: difference to PBS; for Δ[θ]222 induced by TFE: 50% TFE; for % of helicity induced by TFE: increase in molar ellipticity at 222 nm in the presence of 50% TFE; for % of helicity induced by Liposomes: increase in molar ellipticity at 222 nm in the presence of liposomes. In outline:
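Ellipticity at 222 nm, converted to mean residue molar ellipticity, was measured at 25 °C (three-scan average, 190–260 nm, 1 mm path) in phosphate buffer pH 7.2, 50% TFE, or liposomes at 75 μM lipid, after blank subtraction. Induced helicity is the percent rise at 222 nm versus buffer.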

Where [6] appears, read: 10^6 CFU/mL, highest MIC of three independent experiments in triplicate.
Where [7] appears, read: hRBC suspension 4% in PBS, hemoglobin release at 567 nm, 1% Triton X-100 = 100%.
Setting [8] is: value in parentheses (μM), hRBC 4% in PBS, 567 nm.

As to `CN[C@H](CC(C)C)C(=O)N[C@H]1C(=O)N[C@@H](CC(N)=O)C(=O)N[C@H]2C(=O)N[C@H]3C(=O)N[C@H](C(=O)N[C@H](C(=O)O)c4cc(O)cc(O)c4-c4cc3ccc4O)[C@H](O)c3ccc(c(Cl)c3)Oc3cc2cc(c3O[C@@H]2O[C@H](CO)[C@@H](O)[C@H](O)[C@H]2O[C@H]2C[C@](C)(N)[C@H](O)[C@H](C)O2)Oc2ccc(cc2Cl)[C@H]1O` [vancomycin, reference compound], the MIC in the data set with E. faecalis (ATCC 51575) was greater than 50 µg/mL; with E. faecium (ATCC 700221), greater than 50 µg/mL; with E. faecium (ATCC 27270), 1.5 µg/mL (≈ 1.04 µM).

Regarding RWARRWARWWRR-NH2 [6a], the “MIC against S. aureus” value in the data set with S. aureus (ATCC 29213) is 50 µg/mL. In addition, the “MIC, S. aureus (ATCC 29213)” value with S. aureus (ATCC 29213) (setting [6]) was found to be 50 µg/mL. For the same compound, the “MIC, S. aureus (ATCC 29213)” value in the data set with S. aureus (ATCC 29213) (value in parentheses (μM)) is 27.16 µM. The “MIC, E. coli (ATCC 25922)” value in the data set on E. coli (ATCC 25922) (setting [6]) was greater than 100 µg/mL. The “MIC, E. coli (ATCC 25922)” value with E. coli (ATCC 25922) (value in parentheses (μM)) is greater than 54.31 µM. In addition, in the data set with MRSA (ATCC BAA-1556) (setting [6]), the “MIC, MRSA (ATCC BAA-1556)” value stood at 50 µg/mL. The “MIC, MRSA (ATCC BAA-1556)” value with MRSA (ATCC BAA-1556) (value in parentheses (μM)) was found to be 27.16 µM. For the same compound, the “MIC, K. pneumoniae (ATCCBAA-1705)” value in data set [1] (setting [6]) is greater than 100 µg/mL. Further, the “MIC, K. pneumoniae (ATCCBAA-1705)” value in [1] (value in parentheses (μM)) was greater than 54.31 µM. Besides, the “HC50 (concentration at which 50% hemolysis was observed)” value in data set [2] (setting [7]) came out at 230 µg/mL. In addition, the “HC50 (concentration at which 50% hemolysis was observed)” value in data set [2] (setting [8]) came out at 124.92 µM. Besides, in data set [3] (setting [6]), the “MIC, P. aeruginosa (ATCC 27883)” value came out at 100 µg/mL. Besides, the “MIC, P. aeruginosa (ATCC 27883)” value in [3] (value in parentheses (μM)) turned out to be 54.31 µM. In addition, in data set [4], the “tR, RP-HPLC retention time (measure of overall hydrophobicity)” value is 30.42 min. Besides, the “increase in helicity in the presence of liposomes, as compared to PBS” value in data set [5] (CD) is “about 50%”. In data set [5], the “[θ]222 mean residue molar ellipticity, TFE” value is on record as -13346 mdeg cm2/(dmol × res); the “[θ]222 mean residue molar ellipticity, Liposomes” value is recorded as -13245 mdeg cm2/(dmol × res); the “[θ]222 mean residue molar ellipticity, PBS” value is reported as -6737 mdeg cm2/(dmol × res); the “Δ[θ]222 induced by TFE” value is -6608. In data set [5], the “Δ[θ]222 induced by Liposomes” value is -6508, the “% of helicity induced by TFE” value was 49.51% and the “% of helicity induced by Liposomes” value is 49.13%.

With KWLKKWWKWWKK-NH2 [8e], in the data set with S. aureus (ATCC 29213) (setting [6]), the “MIC, S. aureus (ATCC 29213)” value was 12.5 µg/mL. The “MIC, S. aureus (ATCC 29213)” value with S. aureus (ATCC 29213) (value in parentheses (μM)) is 6.83 µM. Besides, in the data set with E. coli (ATCC 25922) (setting [6]), the “MIC, E. coli (ATCC 25922)” value turned out to be 12.5 µg/mL. Besides, the “MIC, E. coli (ATCC 25922)” value in the data set with E. coli (ATCC 25922) (value in parentheses (μM)) came out at 6.83 µM. Also, the “MIC, MRSA (ATCC BAA-1556)” value in the data set with MRSA (ATCC BAA-1556) (setting [6]) amounted to 12.5 µg/mL. For the same compound, the “MIC, MRSA (ATCC BAA-1556)” value in the data set with MRSA (ATCC BAA-1556) (value in parentheses (μM)) was determined as 6.83 µM. Moreover, the “MIC, K. pneumoniae (ATCCBAA-1705)” value in data set [1] (setting [6]) turned out to be 25 µg/mL. The “MIC, K. pneumoniae (ATCCBAA-1705)” value in data set [1] (value in parentheses (μM)) worked out at 13.66 µM. The “HC50 (concentration at which 50% hemolysis was observed)” value in data set [2] (setting [7]) worked out at 240 µg/mL. Moreover, the “HC50 (concentration at which 50% hemolysis was observed)” value in data set [2] (setting [8]) was found to be 131.13 µM. The “MIC, P. aeruginosa (ATCC 27883)” value in [3] (setting [6]) was 12.5 µg/mL. In addition, the “MIC, P. aeruginosa (ATCC 27883)” value in [3] (value in parentheses (μM)) was determined as 6.83 µM. In addition, in data set [4], the “tR, RP-HPLC retention time (measure of overall hydrophobicity)” value turned out to be 34.10 min. In data set [5], the “[θ]222 mean residue molar ellipticity, TFE” value was -11148 mdeg cm2/(dmol × res); the “[θ]222 mean residue molar ellipticity, Liposomes” value is given as -15042 mdeg cm2/(dmol × res); the “[θ]222 mean residue molar ellipticity, PBS” value was -5411 mdeg cm2/(dmol × res); the “Δ[θ]222 induced by TFE” value is given as -5736. Moreover, in data set [5], the “Δ[θ]222 induced by Liposomes” value is reported as -9630, the “% of helicity induced by TFE” value is 51.45% and the “% of helicity induced by Liposomes” value worked out at 64.02%.

The values above are taken from publication PMC9841524, “Structure-Based Rational Design of Small α-Helical Peptides with Broad-Spectrum Activity against Multidrug-Resistant Pathogens” (Journal of Medicinal Chemistry, 2022).
